Measured values from article PMC2191966 (The Journal of Experimental Medicine, 1995).

How the values were obtained:
[1] = test system: L-Db cells; type: cell-based, Murine; conditions: BFA; functional TAP complex; Fig. 6 a
[2] = test system: T2-Kk cells; type: cell-based; conditions: Kk-restricted anti-[…] line, E:T 10:1, Fig. 9 e
[3] = test system: T2-Db cells; experiment: 4-h 51Cr CTL assay, clone F5, T2-Db cells with added synthetic peptide; type: cell-based
[4] = T2-Db lysate with protease inhibitors; Fig. 5
[5] = test system: T2-Db cells; type: cell-based; conditions: chloroquine: preincubation 80 μM, infection 60 μM, assay 5 μM; Fig. 6

For `C[C@H]1CCC/C=C/[C@@H]2C[C@H](O)C[C@H]2[C@H](O)/C=C/C(=O)O1` [BFA, brefeldin A], the “effect on presentation of L+ and L- polypeptides in L-Db cells” value [1] was “Inhibition of presentation of both the L+ and L-polypeptides in L-Db cells”.
In the case of SDYEGRLI, the “lowest peptide concentration at which pulsed T2 transfectants are recognized” value [2] is reported as at most 0.5 nM.
With IASNENMDAM [365-374] the “relative potency in sensitizing T2-Db cells for lysis” value ([3]; relative to 366-374, Fig. 3 a) was “followed by 365-374”.
In the case of MASNENMDAM [M366-374], the “in vitro degradation after cell lysis” value [4] is reported as “Little in vitro degradation of M366-374 occurs after cell lysis”.
In the case of QIASNENMDAM [364-374], the “loss of potency in sensitizing T2-Db cells for lysis (fold less potent)” value ([3]; Fig. 3 a) is reported as “over 10,000 fold”.
For `CCN(CC)CCCC(C)Nc1ccnc2cc(Cl)ccc12` (stereo not drawn) [chloroquine], the “effect on processing and presentation of L+M364 and L+IMP in T2-Db cells” value [5] was “no effect”.
